Data: patent publication US9421175B2, “Prevention of retinopathy by inhibition of the visual cycle” (priority 2004, dated 2016)

Key:
Type in all cases: in vivo, rat
[1] = system: Sprague-Dawley rats; experiment: Resistance to retinal ischemia 1 h after intraperitoneal isotretinoin (scotopic ERG 1 week later); details: isotretinoin 5 mg/kg i.p. in DMSO 1 h before 1 h ischemia (IOP 110 mmHg), 5 treated rats
Description: Purpose: To evaluate the efficacy of isotretinoin in the prevention of retinal functional loss following 1 h of ocular ischemia induced by elevation of the intraocular pressure beginning 1 h after the intraperitoneal administration of isotretinoin.
(§1) Material and methods: Of 12 Sprague-Dawley rats, 7 received intraperitoneal saline injection and 5 received intraperitoneal isotretinoin 5 mg/kg in dimethyl sulfoxide (DMSO) 1 h before intraocular pressure elevation during full anaesthesia using cannulation of the anterior chamber in one eye and infusion of balanced saline solution at a pressure of 110 mmHg. The fellow eye was not subjected to ischemia. The animals were kept in ambient room light before and during ischemia. Retinal function was assessed 1 week later by scotopic and mesopic full-field electroretinography (ERG). The study adhered to the ARVO resolution on animal welfare.

[2] = system: Sprague-Dawley rats; experiment: Resistance to retinal ischemia 18 h after intraperitoneal isotretinoin (scotopic ERG 1 week later)
Description: Purpose: To evaluate the efficacy of isotretinoin in the prevention of retinal functional loss following 1 h ischemia induced by elevation of the intraocular pressure beginning 18 h after the intraperitoneal administration of isotretinoin.
as §1, with “methods: Intraperitoneal” for “methods: Of 12 Sprague-Dawley rats, 7 received intraperitoneal saline injection and 5 received intraperitoneal”, “(DMSO) was given to 6 Sprague-Dawley rats 18” for “(DMSO) 1”, “during general anesthesia” for “during full anaesthesia”

[3] = system: rats; experiment: Experimental retinal vein occlusion, blood-retina barrier permeability by vitreous fluorometry; details: i.p. isotretinoin 5 mg/mild in DMSO for five days before examination, 14 days after photocoagulation; 7 rats; p<0.012
Description: Purpose: To assess the effect of isotretinoin on the integrity of the blood-retina barrier in experimental retinal vein occlusion. Material and methods: Occlusion of all retinal veins near the rim of the optic nerve head was induced by laser photocoagulation in 14 rats. Blood-retina barrier permeability was measured using vitreous fluorometry 2 weeks later. In 7 rats, intraperitoneal isotretinoin 5 mg/mild in dimethyl sulfoxide (DMSO) was administered for five days before the examination of vascular leakage 14 days after photocoagulation. The study adhered to the ARVO resolution on animal welfare.

[4] = system: rats; experiment: Retinal vessel diameter after intravitreal isotretinoin (digital fundus photography); details: single intravitreal injection of isotretinoin 2.5 μg in 10 μl DMSO; 6 h later, dark adapted; 4 eyes; SD 4.2%; p=0.04 vs placebo
Description: Purpose: To assess the effect of intravitreal isotretinoin on retinal vessel diameters in rats, the vein diameter acting as a marker of retinal flow and metabolism.
Methods: In 6 animals, one eye received a single intravitreal injection of isotretinoin 2.5 μg in 10 μl dimethyl sulfoxide (DMSO). The fellow eye received a placebo injection of 10 μl DMSO. Retinal vessel diameter was recorded 6 h later in both eyes after the rats had dark adapted using digital fundus photography in red illumination and assessed using computerized image analysis. All procedures were performed in general anesthesia and the study adhered to the ARVO resolution on animal welfare.

CC1=C(/C=C/C(C)=C/C=C/C(C)=C\C(=O)O)C(C)(C)CCC1 [isotretinoin, 13-cis-retinoic acid]
animals with flat ERG, of 5 eyes subjected to ischemia [1]: 2 animals
animals with intact scotopic ERG, of 5 eyes subjected to ischemia [1]: 3 animals
eyes subjected to ischemia with normal scotopic ERG amplitudes ([2]; isotretinoin 5 mg/kg i.p. in DMSO 18 h before 1 h ischemia (IOP 110 mmHg), ERG 1 week later, 6 treated rats): 6 eyes
scotopic ERG amplitudes ([2]; isotretinoin 5 mg/kg i.p. in DMSO 18 h before 1 h ischemia, eyes subjected to ischemia, 1 week after ischemia): 60-120 μV
retinal vascular leakage compared to untreated animals [3]: lower
change in retinal vein diameter [4]: −9%
